{"source": "patent KR20140130881A", "about": "“보리코나졸을 함유하는 안정한 주사용 조성물” (동아에스티 주식회사, priority 2013, dated 2014)", "origin": "cited, not measured here"}
{"compound": "C[C@@H](c1ncncc1F)[C@](O)(Cn1cncn1)c1ccc(F)cc1F", "note": "[보리코나졸, (2R,3S)-2-(2,4-다이플루오로페닐)-3-(5-플루오로피리미딘-4-일)-1-(1H-1,2,4-트리아졸-1-일)부탄-2-올]", "values": [{"measurement": "aqueous solubility", "setting": "pH 3, acidic solution", "result": 200, "unit": "µg/mL"}, {"measurement": "solubility in water", "setting": "water", "result": 700, "unit": "µg/mL"}]}
